Results on 18 molecules are retold here after patent publication US10328053B2 (Gilead Sciences, Inc., priority 2016, dated 2019).

The test system of data set [1] is pooled cryopreserved hepatocytes. In words: Hepatic Stability Assay (in vitro half-life method). The format is in vitro ADME. The arrangement: dose or concentration left out as unconfirmed. The following applies: 37° C., 1×10^6 cells/mL, 0-6 hours, LC-MS/MS, 39.5 hours is the maximum detectable half life. A digest of the protocol:
(§1)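 Pooled cryopreserved hepatocytes (1×10^6 cells/mL) incubated with compound at […] test concentration, 37° C.; samples at 0, 1, 3 and 6 h quantified by LC-MS/MS. Half-life from rate of compound disappearance, scaled to predicted hepatic clearance via well-stirred model.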

The subject of data set [2] is HBV AD38 viral particles in HepG2 cell line overexpressing NTCP. In words: HBV DNA Quantification Assay. It counts as cell-based. Conditions: Hepatitis B virus, HepG2, 120 h, HBV-infected HepG2-NTCP cells, 5 days incubation, HBV DNA in culture supernatant (QuantiGene 2.0); geometric mean of a minimum of four determinations. The method, boiled down:
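NTCP-overexpressing HepG2 cells infected with AD38 virus at 4000 genome equivalents/cell for 4 days, then reseeded with serially diluted compound in DMEM, 2% FBS, 1% DMSO for 5 days.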

Data set [3] can be described thus: Hepatic Stability Assay (in vitro half-life method). The format is in vitro ADME. The arrangement: dose or concentration left out as unconfirmed. The following applies: pooled cryopreserved hepatocytes, 37° C., 1×10^6 cells/mL, 0-6 hours, LC-MS/MS, 39.5 hours is the maximum detectable half life, read-out: t½ (converted). A digest of the protocol: as §1

Regarding `Cc1c(C(=O)C(=O)NC2(C)CS(=O)(=O)C2)c2n(c1C(=O)Nc1ccc(F)c(C#N)c1)[C@@H]1C[C@@H]1C2` [Example 72, (1aR,6aR)—N-(3-cyano-4-fluorophenyl)-4-methyl-5-(2-((3-methyl-1,1-dioxidothietan-3-yl)amino)-2-oxoacetyl)-1,1a,6,6a-tetrahydrocyclopropa[b]pyrrolizine-3-carboxamide], the t½ (commonly how long it takes for the measured level to halve) in data set [1] came out at 39.5 h. Molecule `Cc1c(C(=O)C(=O)NC2(c3c[nH]nn3)CC2)c2n(c1C(=O)Nc1ccc(F)cc1)CCC2` [Example 70, 7-(2-((1-(1H-1,2,3-triazol-4-yl)cyclopropyl)amino)-2-oxoacetyl)-N-(4-fluorophenyl)-6-methyl-2,3-dihydro-1H-pyrrolizine-5-carboxamide] yielded a t½ in data set [1] of 39.5 h. The molecule `CNC(=O)C1(NC(=O)C(=O)c2c(C)c(C(=O)Nc3ccc(F)cc3)n3c2CCC3)CC(F)(F)C1` [Example 47, 7-(2-((3,3-difluoro-1-(methylcarbamoyl)cyclobutyl)amino)-2-oxoacetyl)-N-(4-fluorophenyl)-6-methyl-2,3-dihydro-1H-pyrrolizine-5-carboxamide] showed a t½ in data set [1] of 39.5 h. On to `CNC(=O)C1(NC(=O)C(=O)c2c(C)c(C(=O)Nc3ccc(F)c(Cl)c3)n3c2CCC3C)CC(F)(F)C1` (single isomer, unassigned) [Example 22, N-(3-chloro-4-fluorophenyl)-7-(2-((3,3-difluoro-1-(methylcarbamoyl)cyclobutyl)amino)-2-oxoacetyl)-3,6-dimethyl-2,3-dihydro-1H-pyrrolizine-5-carboxamide], for which the t½ in data set [1] is 2.7 h. Same read-out and setting: the figure for `CNC(=O)C1(NC(=O)C(=O)c2c(C)c(C(=O)Nc3ccc(F)c(C(F)F)c3)n3c2CCC3)CC(F)(F)C1` [Example 116, 7-(2-((3,3-difluoro-1-(methylcarbamoyl)cyclobutyl)amino)-2-oxoacetyl)-N-(3-(difluoromethyl)-4-fluorophenyl)-6-methyl-2,3-dihydro-1H-pyrrolizine-5-carboxamide] is 39.5 h; for `CNC(=O)C1(NC(=O)C(=O)c2c(C)c(C(=O)Nc3ccc(F)c(F)c3)n3c2C[C@@H](F)C3)CC(F)(F)C1` [Example 49, (R)-7-(2-((3,3-difluoro-1-(methylcarbamoyl)cyclobutyl)amino)-2-oxoacetyl)-N-(3,4-difluorophenyl)-2-fluoro-6-methyl-2,3-dihydro-1H-pyrrolizine-5-carboxamide] it is 39.5 h. In the case of `Cc1c(C(=O)C(=O)NC2(c3c[nH]nn3)CC2)c2n(c1C(=O)Nc1ccnc(C(F)F)c1)[C@@H]1C[C@@H]1C2` [Example 56, (1aR,6aR)-5-(2-((1-(1H-1,2,3-triazol-4-yl)cyclopropyl)amino)-2-oxoacetyl)-N-(2-(difluoromethyl)pyridin-4-yl)-4-methyl-1,1a,6,6a-tetrahydrocyclopropa[b]pyrrolizine-3-carboxamide], in data set [1], the t½ turned out to be 39.5 h. `CNC(=O)C1(NC(=O)C(=O)c2c(C)c(C(=O)Nc3ccc(F)c(C#N)c3)n3c2CCC3)CC(F)(F)C1` [Example 35, N-(3-cyano-4-fluorophenyl)-7-(2-((3,3-difluoro-1-(methylcarbamoyl)cyclobutyl)amino)-2-oxoacetyl)-6-methyl-2,3-dihydro-1H-pyrrolizine-5-carboxamide]: the t½ in data set [1] is 39.5 h. Further, in data set [2], a half-maximal response (EC50) required 109 nM.

`CNC(=O)C1(NC(=O)C(=O)c2c(C)c(C(=O)Nc3ccc(F)c(Cl)c3)n3c2CCC3C)CC(F)(F)C1` (single isomer, unassigned) [Example 23, N-(3-chloro-4-fluorophenyl)-7-(2-((3,3-difluoro-1-(methylcarbamoyl)cyclobutyl)amino)-2-oxoacetyl)-3,6-dimethyl-2,3-dihydro-1H-pyrrolizine-5-carboxamide]: the t½ in data set [1] is 9.6 h. Still for that read-out and setting: the result for `Cc1c(C(=O)C(=O)N[C@H](C)C(F)(F)F)c2n(c1C(=O)Nc1ccc(F)c(Cl)c1)C(C)CC2` (single isomer, unassigned) [Example 25] reads 9.1 h; that for `CNC(=O)C1(NC(=O)C(=O)c2c(C)c(C(=O)Nc3cccc(C(F)F)c3)n3c2CCC3)CC(F)(F)C1` [Example 115, 7-(2-((3,3-difluoro-1-(methylcarbamoyl)cyclobutyl)amino)-2-oxoacetyl)-N-(3-(difluoromethyl)phenyl)-6-methyl-2,3-dihydro-1H-pyrrolizine-5-carboxamide], 39.5 h.

In data set [1], `CNC(=O)C1(NC(=O)C(=O)c2c(C)c(C(=O)Nc3ccc(F)c(F)c3)n3c2CCC3)CC(F)(F)C1` [Example 44, 7-(2-((3,3-difluoro-1-(methylcarbamoyl)cyclobutyl)amino)-2-oxoacetyl)-N-(3,4-difluorophenyl)-6-methyl-2,3-dihydro-1H-pyrrolizine-5-carboxamide] had a t½ of 39.5 h. Also, a half-maximal effect in data set [2] (EC50) was put at 31 nM.

In the case of `Cc1c(C(=O)C(=O)NC2(C(=O)N3CC4(C3)CN(S(C)(=O)=O)C4)CC(F)(F)C2)c2n(c1C(=O)Nc1ccc(F)c(Cl)c1)CCC2` [Example 28, N-(3-chloro-4-fluorophenyl)-7-(2-((3,3-difluoro-1-(6-(methylsulfonyl)-2,6-diazaspiro[3.3]heptane-2-carbonyl)cyclobutyl)amino)-2-oxoacetyl)-6-methyl-2,3-dihydro-1H-pyrrolizine-5-carboxamide], the half-life in data set [3] is 11.8 h. Also, the EC50 (usually the midpoint of the concentration-response curve) in data set [2] was 112 nM. Turning to `Cc1c(C(=O)C(=O)NC2(c3nncs3)CC2)c2n(c1C(=O)Nc1ccnc(C(F)F)c1F)[C@@H]1C[C@@H]1C2` [Example 68, (1aR,6aR)-5-(2-((1-(1,3,4-thiadiazol-2-yl)cyclopropyl)amino)-2-oxoacetyl)-N-(2-(difluoromethyl)-3-fluoropyridin-4-yl)-4-methyl-1,1a,6,6a-tetrahydrocyclopropa[b]pyrrolizine-3-carboxamide], in data set [3], the half-life is 5.2 h. The molecule further had an EC50 in data set [2] of 110 nM. The corresponding values for `Cc1c(C(=O)C(=O)NC2(c3nncs3)CC2)c2n(c1C(=O)Nc1ccc(F)c(Cl)c1)[C@@H]1C[C@@H]1C2` [Example 54, (1aR,6aR)-5-(2-((1-(1,3,4-thiadiazol-2-yl)cyclopropyl)amino)-2-oxoacetyl)-N-(3-chloro-4-fluorophenyl)-4-methyl-1,1a,6,6a-tetrahydrocyclopropa[b]pyrrolizine-3-carboxamide] are 6.7 h and 7.8 nM. Take `Cc1c(C(=O)C(=O)NC2(C(=O)NC3(C)CS(=O)(=O)C3)CC(F)(F)C2)c2n(c1C(=O)Nc1ccc(F)c(Cl)c1)CCC2` [Example 9, N-(3-chloro-4-fluorophenyl)-7-(2-((3,3-difluoro-1-((3-methyl-1,1-dioxidothietan-3-yl)carbamoyl)cyclobutyl)amino)-2-oxoacetyl)-6-methyl-2,3-dihydro-1H-pyrrolizine-5-carboxamide]: the half-life in data set [3] is 11.7 h. The EC50 in data set [2] stood at 103 nM. As for `Cc1c(C(=O)C(=O)NC2(C(F)(F)F)COC2)c2n(c1C(=O)Nc1ccc(F)c(Cl)c1)CCC2` [Example 7, N-(3-chloro-4-fluorophenyl)-6-methyl-7-(2-oxo-2-((3-(trifluoromethyl)oxetan-3-yl)amino)acetyl)-2,3-dihydro-1H-pyrrolizine-5-carboxamide], in data set [3], the half-life was 4.8 h. This molecule gave an EC50 in data set [2] of 5.8 nM. Taken in the same sequence, the figures for `CNC(=O)C1(NC(=O)C(=O)c2c(C)c(C(=O)Nc3ccc(F)c(Cl)c3)n3c2[C@@H]2C[C@@H]2C3)CC(F)(F)C1` [Example 33, (1aS,6bR)—N-(3-chloro-4-fluorophenyl)-6-(2-((3,3-difluoro-1-(methylcarbamoyl)cyclobutyl)amino)-2-oxoacetyl)-5-methyl-1,1a,2,6b-tetrahydrocyclopropa[a]pyrrolizine-4-carboxamide] were 4.3 h and 27.2 nM.
